Earlier results on 2 molecules are cited in patent US20260166148A1, “MAGNETOSTRICTIVE PIEZOELECTRIC NANOASSEMBLY AS CANCER CHEMOTHERAPEUTIC” (GRANT DEMARTINO INDUSTRIES LLC, priority 2021, published 2026).

For data set [1] the following is noted: as studied by Jun Yang et al. [18].

`COc1ccc(C2=[N+]3C(=Nc4c(-c5ccccc5)c(Br)c(-c5ccc(OC)cc5)n4[B-]3(F)F)C(c3ccccc3)=C2Br)cc1` [ADPM06]: the “IC50 values in human tumor cells” value in the data set with human tumor cells (when activated (photosensitizer irradiated)) was “micromolar range”. Besides, the “apoptosis induction, killing the cells (cellular effect)” value in the data set with human tumor cells (when activated, human tumor cells) is listed as “induces apoptosis”.

As for `CC(C)(N=NC(C)(C)C1=NCCN1)C1=NCCN1.Cl.Cl` [AIPH, 2,2′-Azobis(2-(2-imidazolin-2-yl)propane) dihydrochloride], the water solubility entry in data set [1] is on record as “excellent”.
